In US7759326B2, “Aminophosphonic acid derivative, salt thereof, and modulator of S1P receptor” (Kyorin Pharmaceutical Co., Ltd., priority 2003, dated 2010) one finds melting point and EC50 data, which are given here for twelve molecules.

Structures are written as SMILES. pEC50: −log10 of the molar value. Structures can show the parent of a compound that is named as a salt. Some results are limits rather than exact numbers.

One data set concerns the target T1, hS1P1 receptors (Homo sapiens, UniProt P21453).
T1 construct: expressed in transfected cells; host or cells: CHO cells (Geneticin-selected)
The data set is described as follows: Intracellular Ca2+ mobilization in CHO cells expressing human S1P receptors (hS1P1). The note with it: read-out: S1P1 (EC50 class, intracellular Ca2+ mobilization). The format is cell-based. The procedure:
(§1) Test for the Ability of Test Compounds to Induce Intracellular Ca^2+ Mobilization in Cells Expressing Human S1P (Sphingosine-1-Phosphate) Receptors
(§2) CHO cells expressing human S1P receptors (i.e., CHO cells expressing hS1P1 receptors or hS1P3 receptors) were subcultured on Ham's F-12 medium supplemented with 10% fetal bovine serum and 200 μg/mL Geneticin. The cells were seeded on a 96-well black clear bottom plate (COSTAR) at 4×10^4 cells/well and were cultured overnight at 37° C. in 5% CO2. A fluorescent reagent that emits fluorescence upon binding to Ca^2+ (Calcium Screening Kit (DOJINDO)) was added to the culture and the cells were further cultured for 60 min at 37° C. in 5% CO2. After culturing, microplate spectrofluorometer (FLEX station, MOLECULAR DEVICE) was used to measure the fluorescence intensity at an excitation wavelength of 485 nm and a detection wavelength of 525 nm. S1P or a test compound adjusted with cultural medium to a concentration 10 times higher than the final concentration (final DMSO concentration=0.1%). Each test compound solution was added 18 sec. after beginning of the measurement of fluorescence. The fluorescence intensity was measured every 1.5 sec for 100 sec. For each test compound, the difference between the maximum fluorescence intensity and the minimum fluorescence intensity (i.e., increase in fluorescence) was determined from the measurements. The rate of fluorescence increase (%) for each test compound was calculated by the difference (100%) of the fluorescence increase between solvent only and S1P (10^−6M). Using this value as an index of the ability of the test compound to induce intracellular Ca^2+ mobilization, EC50 was determined by PRISM software (GraphPad).
(Calcium assays in cells follow changes in intracellular calcium, usually with a dye or a luminescent sensor.)

Another data set has as its target T2, hS1P3 receptors (Homo sapiens, UniProt Q99500).
T2 construct: expressed in transfected cells; host or cells: CHO cells (Geneticin-selected)
Description: Intracellular Ca2+ mobilization in CHO cells expressing human S1P receptors (hS1P3). The note with it: read-out: S1P3 (EC50 class, intracellular Ca2+ mobilization). The format is cell-based. The procedure: as §1, §2

T2 sequence (Q99500 whole entry): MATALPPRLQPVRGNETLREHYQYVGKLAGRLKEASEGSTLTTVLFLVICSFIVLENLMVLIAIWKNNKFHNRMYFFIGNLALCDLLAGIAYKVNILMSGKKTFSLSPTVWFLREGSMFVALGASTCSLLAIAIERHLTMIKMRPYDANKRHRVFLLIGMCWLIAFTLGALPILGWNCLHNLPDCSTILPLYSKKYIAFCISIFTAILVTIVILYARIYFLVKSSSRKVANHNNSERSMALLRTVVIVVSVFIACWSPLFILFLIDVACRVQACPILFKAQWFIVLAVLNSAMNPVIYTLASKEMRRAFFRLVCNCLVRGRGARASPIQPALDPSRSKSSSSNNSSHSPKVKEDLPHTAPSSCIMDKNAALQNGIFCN
T1 sequence (P21453 whole entry): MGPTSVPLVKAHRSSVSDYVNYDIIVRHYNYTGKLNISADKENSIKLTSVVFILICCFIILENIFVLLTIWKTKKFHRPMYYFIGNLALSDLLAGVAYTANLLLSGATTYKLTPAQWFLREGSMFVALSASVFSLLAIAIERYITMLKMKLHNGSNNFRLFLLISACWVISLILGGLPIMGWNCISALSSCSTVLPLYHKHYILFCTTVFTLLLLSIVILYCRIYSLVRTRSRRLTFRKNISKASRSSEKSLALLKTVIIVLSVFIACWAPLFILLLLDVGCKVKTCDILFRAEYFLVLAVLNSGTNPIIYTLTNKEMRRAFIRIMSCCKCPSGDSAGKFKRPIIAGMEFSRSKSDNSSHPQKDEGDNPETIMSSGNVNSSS

What is called melting point is the temperature, or range, at which the solid turns liquid. The pEC50 is −log10 of the EC50, conventionally taken in molar units. For `CC(N)(/C=C/P(=O)(O)O)CCCc1ccc(Sc2cccc(OCc3ccccc3)c2)cc1Cl` (racemic) [Example 261, 3-amino-6-[4-(3-benzyloxyphenylthio)-2-chlorophenyl]-3-methyl-1-hexenylphosphonic acid], the melting point is 243 to 245 °C. Further, the negative logarithm of the EC50 (pEC50) at hS1P1 receptors is 6.00 to 7.00. Also, the pEC50 at hS1P3 receptors is at most 6.00.
Regarding `CC(N)(CCc1ccc(Sc2cccc(OCc3ccccc3)c2)cc1Cl)COP(=O)(O)O` (single isomer, unassigned; (+)) [Example 249, (+)-2-amino-4-[4-(3-benzyloxyphenylthio)-2-chlorophenyl]-2-methylbutylphosphonate monoester], the results for the negative-log EC50 (pEC50) at hS1P1 receptors and at hS1P3 receptors were 7.00 to 8.00 and over 8.00, respectively.
The like results for `CC(N)(CCc1ccc(Sc2cccc(OCc3ccccc3)c2)cc1Cl)COP(=O)(O)O` (single isomer, unassigned; (-)) [Example 250, (−)-2-amino-4-[4-(3-benzyloxyphenylthio)-2-chlorophenyl]-2-methylbutylphosphonate monoester] were, in that order, 6.00 to 7.00 and at most 6.00.
The like results for `CCCC(N)(/C=C/P(=O)(OC)OC)CCCc1ccc(Sc2cccc(OCc3ccccc3)c2)cc1Cl` (stereo not drawn) [Example 280, Dimethyl 3-amino-6-[4-(3-benzyloxyphenylthio)-2-chlorophenyl]-3-propyl-1-hexenylphosphonate hydrochloride] were, in that order, 6.00 to 7.00 and 6.00 to 7.00.
The matching figures for `CCCC(N)(/C=C/P(=O)(O)O)CCCc1ccc(Sc2cccc(OCc3ccccc3)c2)cc1Cl` (stereo not drawn) [Example 283, 3-amino-6-[4-(3-benzyloxyphenylthio)-2-chlorophenyl]-3-propyl-1-hexenylphosphonic acid]: 7.00 to 8.00 and 7.00 to 8.00.
Turning to `CCCC(N)(CCCc1ccc(Sc2cccc(OCc3ccccc3)c2)cc1Cl)CCP(=O)(O)O` (stereo not drawn) [Example 284, 3-amino-6-[4-(3-benzyloxyphenylthio)-2-chlorophenyl]-3-propylhexylphosphonic acid], the figures for the negative-log EC50 (pEC50) on hS1P1 receptors and on hS1P3 receptors were 7.00 to 8.00 and 6.00 to 7.00, respectively.
`NC(CO)(CCCCc1ccc(Sc2cccc(OCc3ccccc3)c2)cc1Cl)CCP(=O)(O)O` (stereo not drawn) [Example 289, 3-amino-[4-(3-benzyloxyphenylthio)-2-chlorophenyl]-3-hydroxymethylheptylphosphonic acid] came in with a melting point of 180 to 183 °C.
Turning to `NC(CO)(CCCc1ccc(Sc2cccc(OCc3ccccc3)c2)cc1Cl)C(O)C(F)(F)P(=O)(O)O` (stereo not drawn) [Example 293, 3-amino-6-[4-(3-benzyloxyphenylthio)-2-chlorophenyl]-1,1-difluoro-2-hydroxy-3-hydroxymethylhexylphosphonic acid], the pEC50 at hS1P1 receptors and on hS1P3 receptors was 6.00 to 7.00 throughout.
Turning to `NC(CO)(CCCc1ccc(Oc2cccc(C(F)(F)F)c2)cc1Cl)CCP(=O)(O)O` (stereo not drawn) [Example 296, 3-amino-6-[2-chloro-4-(3-trifluoromethylphenoxy)phenyl]-3-hydroxymethylhexylphosphonic acid], the pEC50 on hS1P1 receptors is 7.00 to 8.00; on hS1P3 receptors, at most 6.00.
The matching figures for `NC(CO)(CCCc1ccc(Sc2cccc(C(F)(F)F)c2)cc1Cl)COP(=O)(O)O` (stereo not drawn) [Example 299, 2-amino-5-[2-chloro-4-(3-trifluoromethylphenylthio)phenyl]-2-hydroxymethylpentylphosphonate monoester]: 7.00 to 8.00 and at most 6.00.
Regarding `NC(CO)(CCCc1ccc(Oc2cccc(C(F)(F)F)c2)cc1Cl)COP(=O)(O)O` (stereo not drawn) [Example 300], the pEC50 at hS1P1 receptors is 7.00 to 8.00; on hS1P3 receptors, at most 6.00.
The matching figures for `NC(CO)(CCc1ccc(Sc2ccc(OCc3ccccc3)cc2)cc1Cl)CCP(=O)(O)O` (stereo not drawn) [Example 308, 3-amino-5-[4-(4-benzyloxyphenylthio)-2-chlorophenyl]-3-hydroxymethylpentylphosphonic acid]: 6.00 to 7.00 and at most 6.00.
